Some test systems named below: Malme-3M; COLO 205; HOP-62; SK-MEL-28; MOLT-4; SN12C; U-251; K562; PC-3; NCI-H460; NCI-H522; UO-31; HL-60; SNB-75; M14; SF-539; TK-10; CAKI-1; LOX IMVI; RXF 393.
Holding throughout (test): NCI-60 cell line screen, 48 h

We go through 4 compounds from ChEMBL document CHEMBL1201862, “PubChem BioAssay data set” (2004).

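All cell lines were grown in 96-well plates and treated with compound for 48 hours. At the GI50, growth is halved.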 Active and inactive are the calls of the source. Cut-off read from the data, not from the text of the source: active = GI50 up to about 1.1 µM and inactive = higher.

Regarding `Nc1c2ccccc2nc2ccc3c(=O)cc(-c4ccccc4)oc3c12`, the GI50 is 1.66 µM (inactive) with Malme-3M; 0.234 µM (active) in the experiment with COLO 205; 0.94 µM (active) with HOP-62; 1.55 µM (inactive) in the experiment on SK-MEL-28; 0.435 µM (active) in the experiment with MOLT-4; 0.979 µM (active) in the experiment on SN12C. The GI50 is 0.531 µM (active) with U-251; 0.272 µM (active) with K562; 1.26 µM (inactive) in the experiment with PC-3; 0.646 µM (active) with NCI-H460; 1.25 µM (inactive) in the experiment with NCI-H522; 1.5 µM (inactive) in the experiment with UO-31. For the same compound, the GI50 with HL-60 is 0.977 µM (active); in the experiment on SNB-75 it was 1.76 µM (inactive); in the experiment on M14 it was 1.21 µM (inactive); in the experiment with SF-539, 1.33 µM (inactive); with TK-10, 2.07 µM (inactive); with CAKI-1 it was 1.33 µM (inactive). The results for the GI50 in the experiment with LOX IMVI and in the experiment on RXF 393 were 0.406 µM (active) and 1.32 µM (inactive), respectively.

On to `COC(=O)C1SC(N(C)c2ccccc2)=NC12c1ccccc1Nc1ccccc12` (stereo not given), for which the GI50 with Malme-3M is 15.8 µM (inactive); in the experiment with COLO 205, 14.5 µM (inactive); with HOP-62 it was 33.8 µM (inactive); in the experiment with SK-MEL-28, 19.2 µM (inactive); in the experiment with MOLT-4 it was 7.31 µM (inactive); in the experiment with SN12C, 22.4 µM (inactive). Further, the GI50 with U-251 was 27.5 µM (inactive); in the experiment on K562, 15.1 µM (inactive); in the experiment on PC-3, 16.3 µM (inactive); with NCI-H460, 10.8 µM (inactive); in the experiment with NCI-H522, 13.4 µM (inactive); in the experiment on UO-31, 22.5 µM (inactive). The GI50 with HL-60 is 12.7 µM (inactive); in the experiment on SNB-75, 25.8 µM (inactive); with M14, 19.5 µM (inactive); with SF-539, 18.4 µM (inactive); in the experiment on TK-10, 29.8 µM (inactive); in the experiment with CAKI-1, 23.8 µM (inactive). Also, the GI50 in the experiment with LOX IMVI is 19.1 µM (inactive); with RXF 393, 31.3 µM (inactive).

Regarding `O=C1C=CC(=O)c2c1ccc1c3ccccc3n(-c3ccccc3)c21`, the GI50 in the experiment on Malme-3M is 4.47 µM (inactive); in the experiment on COLO 205, 4.56 µM (inactive); in the experiment with HOP-62, 11 µM (inactive); in the experiment on SK-MEL-28, 3.34 µM (inactive); in the experiment on MOLT-4, 0.561 µM (active); with SN12C it was 11.5 µM (inactive). In addition, the GI50 in the experiment with U-251 was 15.2 µM (inactive); in the experiment on K562 it was 0.986 µM (active); in the experiment with PC-3, 13.6 µM (inactive); with NCI-H460, 17.9 µM (inactive); with NCI-H522, 1.64 µM (inactive); in the experiment with UO-31, 11.9 µM (inactive). Also, the GI50 is 0.501 µM (active) with HL-60; 18.9 µM (inactive) in the experiment on SNB-75; 7.78 µM (inactive) in the experiment with M14; 15.7 µM (inactive) in the experiment on SF-539; 7.66 µM (inactive) with TK-10; 7.18 µM (inactive) with CAKI-1. The GI50 in the experiment on LOX IMVI was 7.1 µM (inactive); with RXF 393, 1.71 µM (inactive).

Consider `CCN1CCN(c2nc3ccccc3c3c2CCOc2ccccc2-3)CC1`, for which the GI50 with Malme-3M was 17.2 µM (inactive); in the experiment with COLO 205, 17.4 µM (inactive); in the experiment on HOP-62, 46.7 µM (inactive); in the experiment with SK-MEL-28, 16.6 µM (inactive); in the experiment with MOLT-4, 10.6 µM (inactive); in the experiment on SN12C, > 55.3 µM (inactive). For the same compound, the GI50 is 32.9 µM (inactive) in the experiment on U-251; 18.1 µM (inactive) in the experiment on K562; 32.7 µM (inactive) with PC-3; 27.2 µM (inactive) in the experiment on NCI-H460; 26.4 µM (inactive) in the experiment on NCI-H522; 24.6 µM (inactive) in the experiment with UO-31. The GI50 with HL-60 is 1.05 µM (active); in the experiment on SNB-75, > 40.6 µM (inactive); in the experiment with M14, 18.5 µM (inactive); with SF-539, > 46.2 µM (inactive); in the experiment on TK-10, 39.5 µM (inactive); with CAKI-1, 25.1 µM (inactive). The results for the GI50 in the experiment on LOX IMVI and with RXF 393 were 16.5 µM (inactive) and 25.2 µM (inactive), respectively.
